In patent US9340590B2 (priority 2011, dated 2016):
Like-named read-outs stand apart in the source and are kept apart here. Positions of bridges follow the written chain, without caps; N, C: chain ends. Residues, ends and D or L forms follow the SMILES beside them.

How the values were obtained:
Experiment in all cases: cell-based
hNav1.7 = hNav1.7 (Homo sapiens, UniProt Q15858); assay type: cell-based; settings: IonWorks Quattro, read-out: IWQ Use Nav1.7
hNav1.5 = hNav1.5 (Homo sapiens, UniProt Q14524); settings: IonWorks Quattro, read-out: IWQ Use Nav1.5
hNav1.3 = hNav1.3 (Homo sapiens, UniProt Q9NY46); settings: IonWorks Quattro, read-out: IWQ Use Nav1.3
[1] = clamped to −110 mV, depolarized to −10 mV, 5 min after compound, n=2

Sequence of hNav1.3 (Q9NY46 whole entry, looked up): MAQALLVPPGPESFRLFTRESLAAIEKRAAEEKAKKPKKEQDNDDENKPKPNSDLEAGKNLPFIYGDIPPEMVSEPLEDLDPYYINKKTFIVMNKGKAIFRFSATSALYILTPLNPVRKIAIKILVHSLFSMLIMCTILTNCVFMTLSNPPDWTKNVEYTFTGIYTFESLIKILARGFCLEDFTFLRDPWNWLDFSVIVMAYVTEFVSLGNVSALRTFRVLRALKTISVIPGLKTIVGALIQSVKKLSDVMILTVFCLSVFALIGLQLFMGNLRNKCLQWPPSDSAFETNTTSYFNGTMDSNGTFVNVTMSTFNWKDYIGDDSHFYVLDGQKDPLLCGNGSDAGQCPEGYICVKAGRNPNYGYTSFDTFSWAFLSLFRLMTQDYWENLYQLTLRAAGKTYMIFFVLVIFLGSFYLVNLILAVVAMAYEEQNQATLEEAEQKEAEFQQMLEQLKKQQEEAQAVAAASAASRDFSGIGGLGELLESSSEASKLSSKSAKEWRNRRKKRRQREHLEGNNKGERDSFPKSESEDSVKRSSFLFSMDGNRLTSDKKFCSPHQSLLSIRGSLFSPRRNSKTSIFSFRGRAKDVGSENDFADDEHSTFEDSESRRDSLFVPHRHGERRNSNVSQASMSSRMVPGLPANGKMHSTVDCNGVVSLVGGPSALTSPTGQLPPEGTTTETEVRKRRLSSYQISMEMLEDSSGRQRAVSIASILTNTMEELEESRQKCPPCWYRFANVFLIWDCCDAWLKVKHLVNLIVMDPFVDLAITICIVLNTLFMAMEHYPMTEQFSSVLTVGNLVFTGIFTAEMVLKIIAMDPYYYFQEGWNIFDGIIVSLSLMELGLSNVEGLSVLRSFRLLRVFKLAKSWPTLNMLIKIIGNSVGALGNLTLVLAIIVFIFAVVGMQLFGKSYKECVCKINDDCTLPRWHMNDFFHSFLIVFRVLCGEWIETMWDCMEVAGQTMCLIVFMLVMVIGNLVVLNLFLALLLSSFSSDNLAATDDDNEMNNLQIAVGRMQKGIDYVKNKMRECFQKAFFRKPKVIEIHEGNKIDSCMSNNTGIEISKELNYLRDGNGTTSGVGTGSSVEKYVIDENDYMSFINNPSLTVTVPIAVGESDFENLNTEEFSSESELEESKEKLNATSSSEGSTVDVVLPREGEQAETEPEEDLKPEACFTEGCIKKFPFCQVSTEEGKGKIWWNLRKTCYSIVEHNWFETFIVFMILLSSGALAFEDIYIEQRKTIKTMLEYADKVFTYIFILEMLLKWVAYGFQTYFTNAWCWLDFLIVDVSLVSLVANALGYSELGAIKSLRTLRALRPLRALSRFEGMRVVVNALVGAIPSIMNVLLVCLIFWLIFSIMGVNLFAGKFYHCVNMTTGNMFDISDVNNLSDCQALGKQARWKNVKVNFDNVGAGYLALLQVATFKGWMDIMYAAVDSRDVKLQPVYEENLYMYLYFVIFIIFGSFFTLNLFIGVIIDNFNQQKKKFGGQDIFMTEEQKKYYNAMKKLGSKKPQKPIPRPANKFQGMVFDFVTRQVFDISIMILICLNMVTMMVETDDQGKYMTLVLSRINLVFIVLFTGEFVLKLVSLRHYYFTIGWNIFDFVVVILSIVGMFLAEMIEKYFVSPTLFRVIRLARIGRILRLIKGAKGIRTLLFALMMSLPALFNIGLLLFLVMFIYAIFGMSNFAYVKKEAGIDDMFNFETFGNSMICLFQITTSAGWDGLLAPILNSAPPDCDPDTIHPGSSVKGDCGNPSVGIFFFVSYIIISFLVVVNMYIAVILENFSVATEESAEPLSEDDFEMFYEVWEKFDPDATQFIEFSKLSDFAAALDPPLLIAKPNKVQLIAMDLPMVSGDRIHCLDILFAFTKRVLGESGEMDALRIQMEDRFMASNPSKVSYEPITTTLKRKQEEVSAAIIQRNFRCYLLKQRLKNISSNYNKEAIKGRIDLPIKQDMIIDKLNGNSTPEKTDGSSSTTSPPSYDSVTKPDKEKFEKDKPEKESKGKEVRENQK
Sequence of hNav1.5 (Q14524 whole entry, looked up): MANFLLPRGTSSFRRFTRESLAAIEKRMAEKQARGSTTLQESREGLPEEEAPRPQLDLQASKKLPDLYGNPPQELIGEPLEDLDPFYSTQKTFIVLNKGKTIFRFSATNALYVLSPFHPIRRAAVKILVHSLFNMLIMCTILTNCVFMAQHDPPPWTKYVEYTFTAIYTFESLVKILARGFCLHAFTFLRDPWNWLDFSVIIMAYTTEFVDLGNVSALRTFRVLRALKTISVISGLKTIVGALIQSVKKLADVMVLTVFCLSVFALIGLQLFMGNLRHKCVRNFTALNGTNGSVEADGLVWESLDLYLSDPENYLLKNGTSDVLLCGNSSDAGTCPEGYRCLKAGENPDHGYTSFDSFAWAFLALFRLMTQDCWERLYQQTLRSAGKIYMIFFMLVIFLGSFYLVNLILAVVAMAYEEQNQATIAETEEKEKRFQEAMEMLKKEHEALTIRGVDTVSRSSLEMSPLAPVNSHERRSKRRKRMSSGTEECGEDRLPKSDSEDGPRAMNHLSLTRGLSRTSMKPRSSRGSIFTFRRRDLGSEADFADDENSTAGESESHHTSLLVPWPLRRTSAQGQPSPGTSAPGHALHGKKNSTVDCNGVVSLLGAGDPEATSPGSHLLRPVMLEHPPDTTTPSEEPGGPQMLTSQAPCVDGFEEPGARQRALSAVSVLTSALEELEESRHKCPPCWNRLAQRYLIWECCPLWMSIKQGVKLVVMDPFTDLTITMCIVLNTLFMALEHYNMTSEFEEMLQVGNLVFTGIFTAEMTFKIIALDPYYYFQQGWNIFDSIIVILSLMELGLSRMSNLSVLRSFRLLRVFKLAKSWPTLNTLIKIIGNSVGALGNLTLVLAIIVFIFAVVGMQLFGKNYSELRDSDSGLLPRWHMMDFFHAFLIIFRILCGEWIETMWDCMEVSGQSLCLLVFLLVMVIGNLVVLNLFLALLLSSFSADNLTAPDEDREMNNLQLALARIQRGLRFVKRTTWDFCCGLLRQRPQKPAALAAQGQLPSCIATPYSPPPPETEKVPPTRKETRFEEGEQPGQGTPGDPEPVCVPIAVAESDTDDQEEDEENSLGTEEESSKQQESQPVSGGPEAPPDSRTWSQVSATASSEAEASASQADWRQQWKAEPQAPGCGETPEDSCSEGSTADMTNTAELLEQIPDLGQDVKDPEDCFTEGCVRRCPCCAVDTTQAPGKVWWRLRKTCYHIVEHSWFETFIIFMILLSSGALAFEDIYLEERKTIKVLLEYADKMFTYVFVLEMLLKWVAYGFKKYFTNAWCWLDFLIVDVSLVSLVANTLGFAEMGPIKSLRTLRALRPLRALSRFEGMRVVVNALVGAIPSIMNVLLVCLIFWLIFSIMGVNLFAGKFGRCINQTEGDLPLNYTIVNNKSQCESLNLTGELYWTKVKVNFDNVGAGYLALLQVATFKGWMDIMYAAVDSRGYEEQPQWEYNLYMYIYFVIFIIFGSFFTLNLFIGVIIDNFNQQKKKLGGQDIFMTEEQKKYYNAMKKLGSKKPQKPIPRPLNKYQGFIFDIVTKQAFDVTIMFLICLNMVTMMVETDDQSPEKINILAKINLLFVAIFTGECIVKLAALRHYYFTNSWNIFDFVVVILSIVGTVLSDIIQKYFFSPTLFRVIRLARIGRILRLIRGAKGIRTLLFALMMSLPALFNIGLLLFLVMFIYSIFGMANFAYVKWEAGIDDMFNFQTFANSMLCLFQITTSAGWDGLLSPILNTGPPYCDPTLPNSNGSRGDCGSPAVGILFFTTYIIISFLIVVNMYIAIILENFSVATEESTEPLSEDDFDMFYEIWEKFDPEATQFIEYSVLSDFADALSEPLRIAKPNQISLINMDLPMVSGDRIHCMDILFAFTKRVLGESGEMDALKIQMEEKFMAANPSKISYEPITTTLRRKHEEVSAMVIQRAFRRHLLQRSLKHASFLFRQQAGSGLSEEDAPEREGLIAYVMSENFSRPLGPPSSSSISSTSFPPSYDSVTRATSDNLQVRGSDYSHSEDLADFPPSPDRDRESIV

For `CC[C@H](C)[C@H](NC(=O)[C@H](CCC(=O)O)NC(=O)[C@H](Cc1ccc(O)cc1)NC(=O)[C@H](CCCCN)NC(=O)[C@@H]1CSSC[C@@H]2NC(=O)[C@H](CCCCN)NC(=O)[C@H](CC(=O)O)NC(=O)[C@H](CC(N)=O)NC(=O)[C@H](CC(=O)O)NC(=O)[C@@H]3CCCN3C(=O)[C@H](CO)NC(=O)[C@@H]3CSSC[C@H](NC(=O)[C@H](C(C)C)NC(=O)[C@H](CC(C)C)NC(=O)[C@H](CC(N)=O)NC(=O)[C@@H]4CCCN4C(=O)[C@H](CCCNC(=N)N)NC(=O)[C@H](CSSC[C@H](NC(=O)[C@@H](N)CC(=O)O)C(=O)N[C@@H](CC(C)C)C(=O)NCC(=O)N[C@@H](Cc4ccccc4)C(=O)N[C@@H](CCSC)C(=O)N[C@@H](CCCNC(=N)N)C(=O)N[C@@H](CCCCN)C(=O)N3)NC2=O)C(=O)N[C@@H](CO)C(=O)N[C@@H](CCCNC(=N)N)C(=O)N[C@@H](CCCCN)C(=O)N[C@@H](Cc2c[nH]cn2)C(=O)N[C@@H](CCCCN)C(=O)N[C@@H](Cc2c[nH]c3ccccc23)C(=O)N1)C(N)=O` [SEQ ID NO: 467] (H-DCLGFMRKCSPDNDKCCRPNLVCSRKHKWCKYEI-NH2; disulfide 2-17, 9-23, 16-30), the IC50 (hNav1.7; [1]) was 4340 nM, the IC50 (hNav1.5; [1]) was 7210 nM and the IC50 (hNav1.3; [1]) was 1150 nM.
With `CC[C@H](C)[C@@H]1NC(=O)[C@@H]2CSSC[C@@H]3NC(=O)[C@H](C(C)C)NC(=O)[C@H](CC(C)C)NC(=O)[C@H](CC(N)=O)NC(=O)[C@@H]4CCCN4C(=O)[C@H](CCCNC(=N)N)NC(=O)[C@H](CSSC[C@H](NC(=O)[C@@H](N)CC(=O)O)C(=O)N[C@@H](CC(C)C)C(=O)NCC(=O)N[C@@H](Cc4ccccc4)C(=O)N[C@@H](CCSC)C(=O)N[C@@H](CCCNC(=N)N)C(=O)N[C@@H](C)C(=O)N2)NC(=O)[C@H](CSSC[C@@H](C(=O)N[C@@H](CCCCN)C(=O)N[C@@H](Cc2ccc(O)cc2)C(=O)N[C@H](C(=O)N[C@@H](Cc2ccccc2)C(N)=O)C(C)C)NC(=O)[C@H](Cc2c[nH]c4ccccc24)NC(=O)[C@H](CCCCN)NC(=O)[C@H](Cc2cnc[nH]2)NC(=O)[C@H]([C@@H](C)O)NC(=O)[C@H](CCCNC(=N)N)NC(=O)[C@H](CO)NC3=O)NC(=O)[C@H](CCCCN)NC(=O)[C@H](CC(=O)O)NC(=O)[C@H](CC(N)=O)NC(=O)[C@H](CC(=O)O)NC(=O)[C@@H]2CCCN2C1=O` [[Ala8]GpTx-1(1-34)] (H-DCLGFMRACIPDNDKCCRPNLVCSRTHKWCKYVF-NH2; disulfide 2-17, 9-23, 16-30) the IC50 (hNav1.7; use-dependent block, hNav1.7) was 490 nM, the IC50 (hNav1.5; use-dependent block, hNav1.5) was 16800 nM and the IC50 (hNav1.3; use-dependent block, hNav1.3) was 410 nM.
`CC[C@H](C)[C@@H]1NC(=O)[C@@H]2CSSC[C@@H]3NC(=O)[C@H](C(C)C)NC(=O)[C@H](CC(C)C)NC(=O)[C@H](CC(N)=O)NC(=O)[C@@H]4CCCN4C(=O)[C@H](CCCNC(=N)N)NC(=O)[C@H](CSSC[C@H](NC(=O)[C@@H](N)CC(=O)O)C(=O)N[C@@H](CC(C)C)C(=O)NCC(=O)N[C@@H](Cc4ccccc4)C(=O)N[C@@H](CCSC)C(=O)N[C@@H](CCCNC(=N)N)C(=O)N[C@@H](CCCNC(=N)N)C(=O)N2)NC(=O)[C@H](CSSC[C@@H](C(=O)N[C@@H](CCCCN)C(=O)N[C@@H](Cc2ccc(O)cc2)C(=O)N[C@H](C(=O)N[C@@H](Cc2ccccc2)C(N)=O)C(C)C)NC(=O)[C@H](Cc2c[nH]c4ccccc24)NC(=O)[C@H](CCCCN)NC(=O)[C@H](Cc2cnc[nH]2)NC(=O)[C@H]([C@@H](C)O)NC(=O)[C@H](CCCNC(=N)N)NC(=O)[C@H](CO)NC3=O)NC(=O)[C@H](CCCCN)NC(=O)[C@H](CC(=O)O)NC(=O)[C@H](CC(N)=O)NC(=O)[C@H](CC(=O)O)NC(=O)[C@@H]2CCCN2C1=O` [[Arg8]GpTx-1(1-34)] (H-DCLGFMRRCIPDNDKCCRPNLVCSRTHKWCKYVF-NH2; disulfide 2-17, 9-23, 16-30) gave an IC50 (hNav1.7; use-dependent block, hNav1.7) of 140 nM, an IC50 (hNav1.5; use-dependent block, hNav1.5) of 13800 nM and an IC50 (hNav1.3; use-dependent block, hNav1.3) of 120 nM.
With `CC[C@H](C)[C@@H]1NC(=O)[C@@H]2CSSC[C@@H]3NC(=O)[C@H](C(C)C)NC(=O)[C@H](CC(C)C)NC(=O)[C@H](CC(N)=O)NC(=O)[C@@H]4CCCN4C(=O)[C@H](CCCNC(=N)N)NC(=O)[C@H](CSSC[C@H](NC(=O)[C@@H](N)CC(=O)O)C(=O)N[C@@H](CC(C)C)C(=O)NCC(=O)N[C@@H](Cc4ccccc4)C(=O)N[C@@H](CCSC)C(=O)N[C@@H](CCCNC(N)=O)C(=O)N[C@@H](CCCCN)C(=O)N2)NC(=O)[C@H](CSSC[C@@H](C(=O)N[C@@H](CCCCN)C(=O)N[C@@H](Cc2ccc(O)cc2)C(=O)N[C@H](C(=O)N[C@@H](Cc2ccccc2)C(N)=O)C(C)C)NC(=O)[C@H](Cc2c[nH]c4ccccc24)NC(=O)[C@H](CCCCN)NC(=O)[C@H](Cc2c[nH]cn2)NC(=O)[C@H]([C@@H](C)O)NC(=O)[C@H](CCCNC(=N)N)NC(=O)[C@H](CO)NC3=O)NC(=O)[C@H](CCCCN)NC(=O)[C@H](CC(=O)O)NC(=O)[C@H](CC(N)=O)NC(=O)[C@H](CC(=O)O)NC(=O)[C@@H]2CCCN2C1=O` [[Cit7]GpTx-1(1-34)] the IC50 (hNav1.7; use-dependent block, hNav1.7) was 630 nM, the IC50 (hNav1.5; use-dependent block, hNav1.5) was 14400 nM and the IC50 (hNav1.3; use-dependent block, hNav1.3) was 560 nM.
With `CC[C@H](C)[C@@H]1NC(=O)[C@@H]2CSSC[C@@H]3NC(=O)[C@H](C(C)C)NC(=O)[C@H](CC(C)C)NC(=O)[C@H](CC(N)=O)NC(=O)[C@@H]4CCCN4C(=O)[C@H](CCCNC(=N)N)NC(=O)[C@H](CSSC[C@H](NC(=O)[C@@H](N)CC(=O)O)C(=O)N[C@@H](CC(C)C)C(=O)NCC(=O)N[C@@H](Cc4ccccc4)C(=O)N[C@@H](CCSC)C(=O)N[C@@H](CCCCN)C(=O)N[C@@H](CCCCN)C(=O)N2)NC(=O)[C@H](CSSC[C@@H](C(=O)N[C@@H](CCCCN)C(=O)N[C@@H](Cc2ccc(O)cc2)C(=O)N[C@H](C(=O)N[C@@H](Cc2ccccc2)C(N)=O)C(C)C)NC(=O)[C@H](Cc2c[nH]c4ccccc24)NC(=O)[C@H](CCCCN)NC(=O)[C@H](Cc2c[nH]cn2)NC(=O)[C@H]([C@@H](C)O)NC(=O)[C@H](CCCNC(=N)N)NC(=O)[C@H](CO)NC3=O)NC(=O)[C@H](CCCCN)NC(=O)[C@H](CC(=O)O)NC(=O)[C@H](CC(N)=O)NC(=O)[C@H](CC(=O)O)NC(=O)[C@@H]2CCCN2C1=O` [[Lys7]GpTx-1(1-34)] (H-DCLGFMKKCIPDNDKCCRPNLVCSRTHKWCKYVF-NH2; disulfide 2-17, 9-23, 16-30) the IC50 (hNav1.7; use-dependent block, hNav1.7) was 530 nM, the IC50 (hNav1.5; use-dependent block, hNav1.5) was 23300 nM and the IC50 (hNav1.3; use-dependent block, hNav1.3) was 470 nM.
`CC[C@H](C)[C@@H]1NC(=O)[C@@H]2CSSC[C@@H]3NC(=O)[C@H](C(C)C)NC(=O)[C@H](CC(C)C)NC(=O)[C@H](CC(N)=O)NC(=O)[C@@H]4CCCN4C(=O)[C@H](CCCNC(=N)N)NC(=O)[C@H](CSSC[C@H](NC(=O)[C@@H](N)CC(=O)O)C(=O)N[C@@H](CC(C)C)C(=O)NCC(=O)N[C@@H](Cc4ccccc4)C(=O)N[C@@H](CCSC)C(=O)N[C@@H](CCCNC(=N)N)C(=O)N[C@@H](CCCCN)C(=O)N2)NC(=O)[C@H](CSSC[C@@H](C(=O)N[C@@H](CCCCN)C(=O)N[C@@H](Cc2ccc(O)cc2)C(=O)N[C@H](C(=O)N[C@@H](Cc2ccccc2)C(N)=O)C(C)C)NC(=O)[C@H](Cc2c[nH]c4ccccc24)NC(=O)[C@H](CCCCN)NC(=O)[C@H](Cc2cnc[nH]2)NC(=O)[C@H]([C@@H](C)O)NC(=O)[C@H](CCCNC(=N)N)NC(=O)[C@H](CO)NC3=O)NC(=O)[C@H](CCCCN)NC(=O)[C@H](CC(=O)O)NC(=O)[C@H](C)NC(=O)[C@H](CC(=O)O)NC(=O)[C@@H]2CCCN2C1=O` [compound 5] (H-DCLGFMRKCIPDADKCCRPNLVCSRTHKWCKYVF-NH2; disulfide 2-17, 9-23, 16-30) showed an IC50 (hNav1.7; Use) of 170 nM, an IC50 (hNav1.5; Use) of 8150 nM and an IC50 (hNav1.3; Use) of 160 nM.
Work on `CC[C@H](C)[C@@H]1NC(=O)[C@@H]2CSSC[C@@H]3NC(=O)[C@H](C(C)C)NC(=O)[C@H](CC(C)C)NC(=O)[C@H](CC(N)=O)NC(=O)[C@@H]4CCCN4C(=O)[C@H](CCCNC(=N)N)NC(=O)[C@H](CSSC[C@H](NC(=O)[C@@H](N)CC(=O)O)C(=O)N[C@@H](CC(C)C)C(=O)NCC(=O)N[C@@H](Cc4ccccc4)C(=O)N[C@@H](CCSC)C(=O)N[C@@H](CCCNC(=N)N)C(=O)N[C@@H](CCCCN)C(=O)N2)NC(=O)[C@H](CSSC[C@@H](C(=O)N[C@@H](CCCCN)C(=O)N[C@@H](Cc2ccc(O)cc2)C(=O)N[C@H](C(=O)N[C@@H](Cc2ccccc2)C(N)=O)C(C)C)NC(=O)[C@H](Cc2c[nH]c4ccccc24)NC(=O)[C@H](CCCCN)NC(=O)[C@H](Cc2cnc[nH]2)NC(=O)[C@H]([C@@H](C)O)NC(=O)[C@H](CCCNC(=N)N)NC(=O)[C@H](CO)NC3=O)NC(=O)[C@H](C)NC(=O)[C@H](CC(=O)O)NC(=O)[C@H](CC(N)=O)NC(=O)[C@H](CC(=O)O)NC(=O)[C@@H]2CCCN2C1=O` [compound 6] (H-DCLGFMRKCIPDNDACCRPNLVCSRTHKWCKYVF-NH2; disulfide 2-17, 9-23, 16-30) yielded an IC50 (hNav1.7; Use) of 220 nM, an IC50 (hNav1.5; Use) of 9640 nM and an IC50 (hNav1.3; Use) of 190 nM.
